Experimental data: patent publication EP4049726A1, “IMIDAZO[1,2-A]PYRAZINES AS INHIBITORS OF HASPIN AND THERAPEUTIC USES THEREOF” (Fundación del Sector Público Estatal Centro Nacional de …, priority 2021, dated 2022)

What follows are molecules tested against T1, HASPIN (Homo sapiens, UniProt Q8TF76) (assay: HASPIN biochemical assay (ADP-Glo, HASPIN autophosphorylation)). Details: ATP 150 µM, 60 min at 30 °C.
T1 sequence (Q8TF76 1-798): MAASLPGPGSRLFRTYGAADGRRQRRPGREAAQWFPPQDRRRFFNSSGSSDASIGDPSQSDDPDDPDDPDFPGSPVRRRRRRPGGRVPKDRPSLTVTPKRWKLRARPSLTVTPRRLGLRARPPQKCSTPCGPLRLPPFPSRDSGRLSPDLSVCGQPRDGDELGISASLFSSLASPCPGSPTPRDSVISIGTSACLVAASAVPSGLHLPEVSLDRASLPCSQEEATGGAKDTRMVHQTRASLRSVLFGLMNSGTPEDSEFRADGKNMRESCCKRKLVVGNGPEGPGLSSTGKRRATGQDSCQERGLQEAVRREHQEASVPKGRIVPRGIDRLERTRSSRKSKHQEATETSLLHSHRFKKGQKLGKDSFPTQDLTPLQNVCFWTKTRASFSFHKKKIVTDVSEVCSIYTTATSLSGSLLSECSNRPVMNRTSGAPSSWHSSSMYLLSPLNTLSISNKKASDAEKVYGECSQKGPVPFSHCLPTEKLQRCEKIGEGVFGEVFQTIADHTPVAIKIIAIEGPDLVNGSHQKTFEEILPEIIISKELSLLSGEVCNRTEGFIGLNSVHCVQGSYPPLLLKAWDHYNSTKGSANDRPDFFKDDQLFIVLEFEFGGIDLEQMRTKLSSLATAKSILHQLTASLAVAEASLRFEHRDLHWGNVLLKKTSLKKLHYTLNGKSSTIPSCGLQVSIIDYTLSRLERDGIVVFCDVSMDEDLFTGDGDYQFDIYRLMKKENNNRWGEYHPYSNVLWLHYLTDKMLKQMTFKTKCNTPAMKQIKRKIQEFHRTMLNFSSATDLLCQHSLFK
Method: HASPIN biochemical Assay: The biochemical assay to measure HASPIN activity relies on the ADP-Glo™ assay kit (Promega) that determines the amount of ADP as direct product of the kinase enzyme activity. Assay conditions were as indicated by the kit manufacturers with the following adaptations for the kinase activity step: Kinase assay buffer and assay volume (15 mM HEPES pH 7.5, 20 mM NaCl, 1 mM EGTA, 0.02% TWEEN 20, 10 mM MgCl2, 0.1 mg/mL BGG)/25 µL assay volume). Incubation time and temperature: 60 min at 30 °C. HASPIN final concentration: 0.9 µg/mL. ATP final concentration: 150 µM. HASPIN autophosphorylation was measured. Assays were performed in 384-well plates. The final outcome of the coupled reactions provided by the kit is the release of […] and has been measured with a multilabel HTS counter Victor V / Envision. Values were normalized against the control activity included (100% HASPIN activity, without compound). Values were plotted against the inhibitor concentration and fit to a sigmoid dose-response curve using Activity base by IDBS software.

IC50 [nM]	SMILES
30	NC(=O)c1cn2cc(-c3ccncc3)nc(NCC3CCNCC3)c2n1 [Compound 2, 8-[(Piperidin-4-ylmethyl)-amino]-6-pyridin-4-yl-imidazo[1,2-a]pyrazine-2-carboxylic acid amide]
229	COCCNC(=O)c1cn2cc(-c3ccncc3)nc(NCC3CCNCC3)c2n1 [Compound 5, 8-[(Piperidin-4-ylmethyl)-amino]-6-pyridin-4-yl-imidazo[1,2-a]pyrazine-2-carboxylic acid (2-methoxy-ethyl)-amide]
59.6	N#CC1(CNc2nc(-c3ccnc(Cl)c3)cn3cc(C(N)=O)nc23)CCNCC1 [Compound 6, 6-(2-Chloro-pyridin-4-yl)-8-[(4-cyano-piperidin-4-ylmethyl)-amino]-imidazo[1,2-a]pyrazine-2-carboxylic acid amide]
60	CNC(=O)c1nc2c(NCC3CCNCC3)nc(-c3ccncc3)cn2c1C [Compound 7, 3-Methyl-8-[(piperidin-4-ylmethyl)-amino]-6-pyridin-4-yl-imidazo[1,2-a]pyrazine-2-carboxylic acid methylamide]
180	Cc1c(C(N)=O)nc2c(NCC3CCNCC3)nc(-c3ccncc3)cn12 [Compound 9, 3-Methyl-8-[(piperidin-4-ylmethyl)-amino]-6-pyridin-4-yl-imidazo[1,2-a]pyrazine-2-carboxylic acid amide]
65	CNC(=O)c1nc2c(NCC3CCNCC3)nc(-c3ccnc(Cl)c3)cn2c1C [Compound 11, 6-(2-Chloro-pyridin-4-yl)-3-methyl-8-[(piperidin-4-ylmethyl)-amino]-imidazo[1,2-a]pyrazine-2-carboxylic acid methylamide]
253	Cc1c(C(N)=O)nc2c(NCC3CCNCC3)nc(-c3ccnc(Cl)c3)cn12 [Compound 12, 6-(2-Chloro-pyridin-4-yl)-3-methyl-8-[(piperidin-4-ylmethyl)-amino]-imidazo[1,2-a]pyrazine-2-carboxylic acid amide]
78	CNC(=O)c1nc2c(NCC3(F)CCNCC3)nc(-c3ccncc3)cn2c1C [Compound 14, 8-[(4-Fluoro-piperidin-4-ylmethyl)-amino]-3-methyl-6-pyridin-4-yl-imidazo[1,2-a]pyrazine-2-carboxylic acid methylamide]
25.9	NC(=O)c1cn2cc(-c3ccncc3)nc(NCC3(F)CCNCC3)c2n1 [Compound 15, 8-[(4-Fluoro-piperidin-4-ylmethyl)-amino]-6-pyridin-4-yl-imidazo[1,2-a]pyrazine-2-carboxylic acid amide]
96	Cc1c(C(N)=O)nc2c(NCC3(F)CCNCC3)nc(-c3ccncc3)cn12 [Compound 16, 8-[(4-Fluoro-piperidin-4-ylmethyl)-amino]-3-methyl-6-pyridin-4-yl-imidazo[1,2-a]pyrazine-2-carboxylic acid amide]
18.2	CNC(=O)c1nc2c(NCC3(C#N)CCNCC3)nc(-c3ccncc3)cn2c1C [Compound 17, 8-[(4-Cyano-piperidin-4-ylmethyl)-amino]-3-methyl-6-pyridin-4-yl-imidazo[1,2-a]pyrazine-2-carboxylic acid methylamide]
138	COCCNC(=O)c1nc2c(NCC3(C#N)CCNCC3)nc(-c3ccncc3)cn2c1C [Compound 18, 8-[(4-Cyano-piperidin-4-ylmethyl)-amino]-3-methyl-6-pyridin-4-yl-imidazo[1,2-a]pyrazine-2-carboxylic acid (2-methoxy-ethyl)-amide]
45.7	Cc1c(C(N)=O)nc2c(NCC3(C#N)CCNCC3)nc(-c3ccncc3)cn12 [Compound 19, 8-[(4-Cyano-piperidin-4-ylmethyl)-amino]-3-methyl-6-pyridin-4-yl-imidazo[1,2-a]pyrazine-2-carboxylic acid amide]
78.8	CNC(=O)c1nc2c(NCC3(F)CCNCC3)nc(-c3ccnc(Cl)c3)cn2c1C [Compound 20, 6-(2-Chloro-pyridin-4-yl)-8-[(4-fluoro-piperidin-4-ylmethyl)-amino]-3-methyl-imidazo[1,2-a]pyrazine-2-carboxylic acid methylamide]
151	CNC(=O)c1nc2c(NCC3(C#N)CCNCC3)nc(-c3ccnc(Cl)c3)cn2c1C [Compound 21, 6-(2-Chloro-pyridin-4-yl)-8-[(4-cyano-piperidin-4-ylmethyl)-amino]-3-methyl-imidazo[1,2-a]pyrazine-2-carboxylic acid methylamide]
111	Cc1c(C(N)=O)nc2c(NCC3(C#N)CCNCC3)nc(-c3ccnc(Cl)c3)cn12 [Compound 24, 6-(2-Chloro-pyridin-4-yl)-8-[(4-cyano-piperidin-4-ylmethyl)-amino]-3-methyl-imidazo[1,2-a]pyrazine-2-carboxylic acid amide]
157	Cc1c(C(N)=O)nc2c(NCC3(F)CCNCC3)nc(-c3ccnc(Cl)c3)cn12 [Compound 25, 6-(2-Chloro-pyridin-4-yl)-8-[(4-fluoro-piperidin-4-ylmethyl)-amino]-3-methyl-imidazo[1,2-a]pyrazine-2-carboxylic acid amide]
19.5	CNC(=O)c1cn2cc(-c3ccncc3F)nc(NCC3CCNCC3)c2n1 [Compound 28, 6-(3-Fluoro-pyridin-4-yl)-8-[(piperidin-4-ylmethyl)-amino]-imidazo[1,2-a]pyrazine-2-carboxylic acid methylamide]
6.59	N#CC1(CNc2nc(-c3ccncc3F)cn3cc(C(N)=O)nc23)CCNCC1 [Compound 29, 8-[(4-Cyano-piperidin-4-ylmethyl)-amino]-6-(3-fluoro-pyridin-4-yl)-imidazo[1,2-a]pyrazine-2-carboxylic acid amide]
187	NC(=O)c1cn2cc(-c3ccncc3Cl)nc(NCC3CCNCC3)c2n1 [Compound 30, 6-(3-Chloro-pyridin-4-yl)-8-[(piperidin-4-ylmethyl)-amino]-imidazo[1,2-a]pyrazine-2-carboxylic acid amide]
189	CNC(=O)c1cn2cc(-c3ccncc3Cl)nc(NCC3CCNCC3)c2n1 [Compound 31, 6-(3-Chloro-pyridin-4-yl)-8-[(piperidin-4-ylmethyl)-amino]-imidazo[1,2-a]pyrazine-2-carboxylic acid methylamide]
94.8	CNC(=O)c1nc2c(NCC3CCNCC3)nc(-c3ccncc3F)cn2c1C [Compound 35, 6-(3-Fluoro-pyridin-4-yl)-3-methyl-8-[(piperidin-4-ylmethyl)-amino]-imidazo[1,2-a]pyrazine-2-carboxylic acid methylamide]
140	NC(=O)c1cn2cc(-c3ccncc3)nc(N[C@H]3CC[C@@H](N)CC3)c2n1 [Compound 39, 8-(cis-4-Amino-cyclohexylamino)-6-pyridin-4-yl-imidazo[1,2-a]pyrazine-2-carboxylic acid amide]
34.5	NC(=O)c1cn2cc(-c3ccnc(N)c3)nc(NCC3(F)CCNCC3)c2n1 [Compound 41, 6-(2-Amino-pyridin-4-yl)-8-[(4-fluoro-piperidin-4-ylmethyl)-amino]-imidazo[1,2-a]pyrazine-2-carboxylic acid amide]
46.8	NC(=O)c1cn2cc(-c3ccncc3)nc(NCC3(O)CCNCC3)c2n1 [Compound 44, 8-[(4-Hydroxy-piperidin-4-ylmethyl)-amino]-6-pyridin-4-yl-imidazo[1,2-a]pyrazine-2-carboxylic acid amide]
85.6	NC(=O)c1cn2cc(-c3ccns3)nc(NCC3(F)CCNCC3)c2n1 [Compound 46, 8-[(4-Fluoro-piperidin-4-ylmethyl)-amino]-6-isothiazol-5-yl-imidazo[1,2-a]pyrazine-2-carboxylic acid amide]
